Measurements as given in PubChem BioAssay AID2060897 (Molecular Pharmacology Branch, DTP, NCI, 2025).

System: 966289-007-R4-J1-PDC complex spheroid viability
Test: Anticancer human tumor 966289-007-R4-J1-PDC patient-derived pancreatic adenocarcinoma cell line growth inhibition [RAS]
Details: for viability, T/C: stronger effect = lower value; active means viability on the fitted dose curve at most 10% of control; inactive means the rest
Method in brief: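 Agents were tested in combination matrices in half-log decrements from a top concentration at or near clinical Cmax (10 microM if undetermined). Targets were multi-cell spheroids of tumour lines plus HUVEC and MSC stromal cells.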
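Further: spheroids exposed to agents for one week before readout.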
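Wherever viability, T/C is given: percent viability relative to DMSO vehicle control wells as 100%.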

CC(Nc1ccc2c(c1)OCCn1cc(N3C(=O)OCC3C(F)F)nc1-2)C(N)=O (stereo not given) + C#Cc1c(F)ccc2cc(O)cc(-c3ncc4c(N5CC6CCC(C5)N6)nc(OCC56CCCN5CC(F)C6)nc4c3F)c12
> 10 µM: IC50 (curve of first compound, second compound 0.0316 µM) | IC50 (curve of first compound, second compound 0.1 µM) | IC50 (curve of first compound, second compound 0.316 µM) | IC50 (curve of first compound, second compound 1 µM) | IC50 (curve of first compound, second compound 3.16 µM) | IC50 (curve of first compound, second compound 10 µM)
inactive: viability, T/C (second compound 0.0316 µM, first compound 0.0316 µM) 108% | viability, T/C (second compound 0.0316 µM, first compound 0.1 µM) 106% | viability, T/C (second compound 0.0316 µM, first compound 0.316 µM) 100% | viability, T/C (second compound 0.0316 µM, first compound 1 µM) 95.5% | viability, T/C (second compound 0.0316 µM, first compound 3.16 µM) 107% | viability, T/C (second compound 0.0316 µM, first compound 10 µM) 86.8% | viability, T/C (second compound 0.1 µM, first compound 0.0316 µM) 104% | viability, T/C (second compound 0.1 µM, first compound 0.1 µM) 110% | viability, T/C (second compound 0.1 µM, first compound 0.316 µM) 101% | viability, T/C (second compound 0.1 µM, first compound 1 µM) 112% | viability, T/C (second compound 0.1 µM, first compound 3.16 µM) 111% | viability, T/C (second compound 0.1 µM, first compound 10 µM) 86.9% | viability, T/C (second compound 0.316 µM, first compound 0.0316 µM) 110% | viability, T/C (second compound 0.316 µM, first compound 0.1 µM) 102% | viability, T/C (second compound 0.316 µM, first compound 0.316 µM) 91.6% | viability, T/C (second compound 0.316 µM, first compound 1 µM) 95.3% | viability, T/C (second compound 0.316 µM, first compound 3.16 µM) 94.8% | viability, T/C (second compound 0.316 µM, first compound 10 µM) 77.3% | viability, T/C (second compound 1 µM, first compound 0.0316 µM) 109% | viability, T/C (second compound 1 µM, first compound 0.1 µM) 109% | viability, T/C (second compound 1 µM, first compound 0.316 µM) 121% | viability, T/C (second compound 1 µM, first compound 1 µM) 113% | viability, T/C (second compound 1 µM, first compound 3.16 µM) 115% | viability, T/C (second compound 1 µM, first compound 10 µM) 81.2% | viability, T/C (second compound 3.16 µM, first compound 0.0316 µM) 104% | viability, T/C (second compound 3.16 µM, first compound 0.1 µM) 95% | viability, T/C (second compound 3.16 µM, first compound 0.316 µM) 115% | viability, T/C (second compound 3.16 µM, first compound 1 µM) 91.6% | viability, T/C (second compound 3.16 µM, first compound 3.16 µM) 97% | viability, T/C (second compound 3.16 µM, first compound 10 µM) 83.1% | viability, T/C (second compound 10 µM, first compound 0.0316 µM) 98.9% | viability, T/C (second compound 10 µM, first compound 0.1 µM) 113% | viability, T/C (second compound 10 µM, first compound 0.316 µM) 119% | viability, T/C (second compound 10 µM, first compound 1 µM) 104% | viability, T/C (second compound 10 µM, first compound 3.16 µM) 95.9% | viability, T/C (second compound 10 µM, first compound 10 µM) 90.7%

CCN1CCN(Cc2ccc(Nc3ncc(F)c(-c4cc(F)c5nc(C)n(C(C)C)c5c4)n3)nc2)CC1 + CCn1c(-c2cccnc2C(C)OC)c2c3cc(ccc31)N1CCOC(CC(NC(=O)C(C(C)C)N(C)C(=O)C3(F)CCN(C(=O)C#CC(C)(C)N(C)C)CC3)C(=O)N3CCCC(N3)C(=O)OCC(C)(C)C2)C1
> 1 µM: IC50 (curve of first compound, second compound 0.000949 µM) | IC50 (curve of first compound, second compound 0.003 µM) | IC50 (curve of first compound, second compound 0.00949 µM) | IC50 (curve of first compound, second compound 0.03 µM) | IC50 (curve of first compound, second compound 0.0949 µM) | IC50 (curve of first compound, second compound 0.3 µM)
inactive: viability, T/C (second compound 0.000949 µM, first compound 0.00316 µM) 107% | viability, T/C (second compound 0.000949 µM, first compound 0.01 µM) 84.9% | viability, T/C (second compound 0.000949 µM, first compound 0.0316 µM) 104% | viability, T/C (second compound 0.000949 µM, first compound 0.1 µM) 81.3% | viability, T/C (second compound 0.000949 µM, first compound 0.316 µM) 85.6% | viability, T/C (second compound 0.000949 µM, first compound 1 µM) 79.3% | viability, T/C (second compound 0.003 µM, first compound 0.00316 µM) 106% | viability, T/C (second compound 0.003 µM, first compound 0.01 µM) 78.2% | viability, T/C (second compound 0.003 µM, first compound 0.0316 µM) 93.7% | viability, T/C (second compound 0.003 µM, first compound 0.1 µM) 79.8% | viability, T/C (second compound 0.003 µM, first compound 0.316 µM) 93.4% | viability, T/C (second compound 0.003 µM, first compound 1 µM) 84.1% | viability, T/C (second compound 0.00949 µM, first compound 0.00316 µM) 69.9% | viability, T/C (second compound 0.00949 µM, first compound 0.01 µM) 90.2% | viability, T/C (second compound 0.00949 µM, first compound 0.0316 µM) 104% | viability, T/C (second compound 0.00949 µM, first compound 0.1 µM) 90.4% | viability, T/C (second compound 0.00949 µM, first compound 0.316 µM) 90% | viability, T/C (second compound 0.00949 µM, first compound 1 µM) 78.5% | viability, T/C (second compound 0.03 µM, first compound 0.00316 µM) 77.8% | viability, T/C (second compound 0.03 µM, first compound 0.01 µM) 83.3% | viability, T/C (second compound 0.03 µM, first compound 0.0316 µM) 99.5% | viability, T/C (second compound 0.03 µM, first compound 0.1 µM) 81.4% | viability, T/C (second compound 0.03 µM, first compound 0.316 µM) 90.9% | viability, T/C (second compound 0.03 µM, first compound 1 µM) 78.9% | viability, T/C (second compound 0.0949 µM, first compound 0.00316 µM) 78.4% | viability, T/C (second compound 0.0949 µM, first compound 0.01 µM) 99.6% | viability, T/C (second compound 0.0949 µM, first compound 0.0316 µM) 112% | viability, T/C (second compound 0.0949 µM, first compound 0.1 µM) 99.8% | viability, T/C (second compound 0.0949 µM, first compound 0.316 µM) 94.4% | viability, T/C (second compound 0.0949 µM, first compound 1 µM) 79.9% | viability, T/C (second compound 0.3 µM, first compound 0.00316 µM) 83.3% | viability, T/C (second compound 0.3 µM, first compound 0.01 µM) 88.6% | viability, T/C (second compound 0.3 µM, first compound 0.0316 µM) 101% | viability, T/C (second compound 0.3 µM, first compound 0.1 µM) 87.7% | viability, T/C (second compound 0.3 µM, first compound 0.316 µM) 91% | viability, T/C (second compound 0.3 µM, first compound 1 µM) 81.3%

CC1(O)CCCC1n1c(=O)c(C(F)F)cc2cnc(NC3CCN(S(C)(=O)=O)CC3)nc21 (stereo not given)
inactive: viability, T/C (compound 0.1 µM) 56.9% [middle of 4 runs] | viability, T/C (compound 0.316 µM) 27.7% [middle of 4 runs] | viability, T/C (compound 1 µM) 31.8% [middle of 4 runs] | viability, T/C (compound 3.16 µM) 28.4% [middle of 4 runs] | viability, T/C (compound 10 µM) 4.66% [middle of 4 runs]
145 nM [middle of 4 runs]: IC50 (curve of compound)
